From patent US20060069132A1, “Azolecarboxamide herbicides” (priority 2004, published 2006)

Experiments:
rice = test: Test B flooded paddy test; assay type: in vivo, Oryza sativa; settings: 1000 g ai/ha, visual rating, scale 0 to 100 (0 no effect, 100 complete control), 13 to 15 days
Procedure, shortened: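 Scale 0–100: zero equals no visible effect, 100 complete control, judged by eye relative to controls. Timing: 13 to 15 days in greenhouse post-treatment. Growth stage at spraying: two leaves (paddy) or one to four leaves, 2–18 cm (postemergence).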

corn = test: Test B pre-/postemergence herbicide test; assay type: in vivo, Zea mays; settings: for Plant response rating, Corn: preemergence; for Corn plant response rating: postemergence, visual rating, scale 0 (no effect) to 100 (complete control)
Procedure, shortened: (§1)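 Formulation: non-phytotoxic solvent mix with surfactant. Timing: preemergence on seed and postemergence on 2–18 cm plants, applied concurrently. Readout after 13–15 d greenhouse: visual 0–100 control rating against controls.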

large crabgrass = test: Test B pre-/postemergence herbicide test; assay type: in vivo, Digitaria sanguinalis; settings: for Plant response rating, Crabgrass, Large: preemergence; for Crabgrass, Large plant response rating: postemergence, visual rating, scale 0 (no effect) to 100 (complete control)
Procedure, shortened: as §1

velvetleaf = test: Test B pre-/postemergence herbicide test; assay type: in vivo, Abutilon theophrasti; settings: for Plant response rating, Velvetleaf: preemergence; for Velvetleaf plant response rating: postemergence, visual rating, scale 0 (no effect) to 100 (complete control)
Procedure, shortened: as §1

Surinam grass = test: Test B pre-/postemergence herbicide test; assay type: in vivo, Urochloa decumbens; settings: for Plant response rating, Surinam Grass: preemergence; for Surinam Grass plant response rating: postemergence, visual rating, scale 0 (no effect) to 100 (complete control)
Procedure, shortened: as §1

giant foxtail = test: Test B pre-/postemergence herbicide test; assay type: in vivo, Setaria faberi; settings: for Plant response rating, Foxtail, Giant: preemergence; for Foxtail, Giant plant response rating: postemergence, visual rating, scale 0 (no effect) to 100 (complete control)
Procedure, shortened: as §1

morningglory = test: Test B pre-/postemergence herbicide test; assay type: in vivo, Ipomoea coccinea; settings: for Plant response rating, Morningglory: preemergence; for Morningglory plant response rating: postemergence, visual rating, scale 0 (no effect) to 100 (complete control)
Procedure, shortened: (§2)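 Greenhouse pot assay with simultaneous preemergence (treated seed) and postemergence (2–18 cm seedlings) applications of surfactant-containing, non-phytotoxic solvent formulations. Response scored visually 13–15 days later on a 0–100 scale, 100 meaning complete control.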

barnyardgrass [1] = test: Test B flooded paddy test; assay type: in vivo, Echinochloa crus-galli; settings: 1000 g ai/ha, visual rating, scale 0 to 100 (0 no effect, 100 complete control), 13 to 15 days
Procedure, shortened: (§3)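 Greenhouse test; postemergence application to plants at 1–4 leaves (2–18 cm); paddy species at 2 leaves; evaluated visually vs controls at 13–15 days; scale 0–100 (100 = complete control).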

[2] = test system: small flower umbrella sedge; test: Test B flooded paddy test; assay type: in vivo, Cyperus difformis; settings: 1000 g ai/ha, visual rating, scale 0 to 100 (0 no effect, 100 complete control), 13 to 15 days
Procedure, shortened: as §3

barnyardgrass [3] = test: Test B pre-/postemergence herbicide test; assay type: in vivo, Echinochloa crus-galli; settings: for Plant response rating, Barnyardgrass: preemergence; for Barnyardgrass plant response rating: postemergence, visual rating, scale 0 (no effect) to 100 (complete control)
Procedure, shortened: as §2

blackgrass = test: Test B postemergence herbicide test; assay type: in vivo, Alopecurus myosuroides; settings: postemergence, visual rating, scale 0 (no effect) to 100 (complete control)
Procedure, shortened: as §3

cocklebur = test: Test B pre-/postemergence herbicide test; assay type: in vivo, Xanthium strumarium; settings: for Plant response rating, Cocklebur: preemergence; for Cocklebur plant response rating: postemergence, visual rating, scale 0 (no effect) to 100 (complete control)
Procedure, shortened: as §2

lambsquarters = test: Test B pre-/postemergence herbicide test; assay type: in vivo, Chenopodium album; settings: for Plant response rating, Lambsquarters: preemergence; for Lambsquarters plant response rating: postemergence, visual rating, scale 0 (no effect) to 100 (complete control)
Procedure, shortened: as §1

wheat = test: Test B postemergence herbicide test; assay type: in vivo, Triticum aestivum; set-up: key to Wheat plant response rating: 0 = no effect, 100 = complete control; settings: postemergence, visual rating, scale 0 (no effect) to 100 (complete control)
Procedure, shortened: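 Postemergence plants were sprayed with formulated test chemicals at 2 to 18 cm height (1- to 4-leaf stage); paddy species were grown to the 2-leaf stage. After 13 to 15 days in a greenhouse, injury was rated visually against untreated controls on a 0–100 scale (0 = no effect, 100 = complete control).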

ducksalad = test: Test B flooded paddy test; assay type: in vivo, Heteranthera limosa; settings: 1000 g ai/ha, visual rating, scale 0 to 100 (0 no effect, 100 complete control), 13 to 15 days
Procedure, shortened: as §3

[4] = 500 g ai/ha, visual rating 0-100, 0 no effect, 100 complete control
[5] = 125 g ai/ha, 0 to 100 scale, 0 is no effect, 100 is complete control

SMILES: CCn1nc(C(C)(C)C)cc1C(=O)Nc1cccc(S(=O)(=O)C(F)(F)F)c1 [Compound 134]
- Rice plant response rating (rice): 60
- Plant response rating, Corn (corn; [4]): 10
- Corn plant response rating (corn; 125 g ai/ha): 20
- Corn plant response rating (corn; 500 g ai/ha): 30
- Plant response rating, Corn (corn; [5]): 0
- Plant response rating, Crabgrass, Large (large crabgrass; [4]): 100
- Crabgrass, Large plant response rating (large crabgrass; 125 g ai/ha): 30
- Crabgrass, Large plant response rating (large crabgrass; 500 g ai/ha): 30
- Plant response rating, Crabgrass, Large (large crabgrass; [5]): 80
- Plant response rating, Velvetleaf (velvetleaf; [4]): 90
- Velvetleaf plant response rating (velvetleaf; 125 g ai/ha): 30
- Velvetleaf plant response rating (velvetleaf; 500 g ai/ha): 40
- Plant response rating, Velvetleaf (velvetleaf; [5]): 30
- Plant response rating, Surinam Grass (Surinam grass; [4]): 50
- Surinam Grass plant response rating (Surinam grass; 125 g ai/ha): 20
- Surinam Grass plant response rating (Surinam grass; 500 g ai/ha): 40
- Plant response rating, Surinam Grass (Surinam grass; [5]): 30
- Plant response rating, Foxtail, Giant (giant foxtail; [4]): 70
- Foxtail, Giant plant response rating (giant foxtail; 125 g ai/ha): 30
- Foxtail, Giant plant response rating (giant foxtail; 500 g ai/ha): 40
- Plant response rating, Foxtail, Giant (giant foxtail; [5]): 20
- Plant response rating, Morningglory (morningglory; [4]): 20
- Morningglory plant response rating (morningglory; 125 g ai/ha): 20
- Morningglory plant response rating (morningglory; 500 g ai/ha): 40
- Plant response rating, Morningglory (morningglory; [5]): 10
- Barnyardgrass plant response rating (barnyardgrass [1]): 60
- Sedge, Umbrella plant response rating [2]: 80
- Plant response rating, Barnyardgrass (barnyardgrass [3]; [4]): 80
- Barnyardgrass plant response rating (barnyardgrass [3]; 125 g ai/ha): 20
- Barnyardgrass plant response rating (barnyardgrass [3]; 500 g ai/ha): 40
- Plant response rating, Barnyardgrass (barnyardgrass [3]; [5]): 50
- Blackgrass plant response rating (blackgrass; 125 g ai/ha): 0
- Blackgrass plant response rating (blackgrass; 500 g ai/ha): 20
- Plant response rating, Cocklebur (cocklebur; [4]): 0
- Cocklebur plant response rating (cocklebur; 125 g ai/ha): 80
- Cocklebur plant response rating (cocklebur; 500 g ai/ha): 100
- Plant response rating, Cocklebur (cocklebur; [5]): 0
- Plant response rating, Lambsquarters (lambsquarters; [4]): 100
- Lambsquarters plant response rating (lambsquarters; 125 g ai/ha): 80
- Lambsquarters plant response rating (lambsquarters; 500 g ai/ha): 90
- Plant response rating, Lambsquarters (lambsquarters; [5]): 100
- Wheat plant response rating (wheat; 125 g ai/ha): 10
- Wheat plant response rating (wheat; 500 g ai/ha): 20
- Ducksalad plant response rating (ducksalad): 90

SMILES: CCn1nc(C(C)(C)C)cc1C(=O)Nc1cccc(C#N)c1 [Compound 139]
- Rice plant response rating (rice): 50
- Plant response rating, Corn (corn; [4]): 40
- Corn plant response rating (corn; 125 g ai/ha): 10
- Corn plant response rating (corn; 500 g ai/ha): 20
- Plant response rating, Corn (corn; [5]): 10
- Plant response rating, Crabgrass, Large (large crabgrass; [4]): 100
- Crabgrass, Large plant response rating (large crabgrass; 125 g ai/ha): 10
- Crabgrass, Large plant response rating (large crabgrass; 500 g ai/ha): 20
- Plant response rating, Crabgrass, Large (large crabgrass; [5]): 60
- Plant response rating, Velvetleaf (velvetleaf; [4]): 80
- Velvetleaf plant response rating (velvetleaf; 125 g ai/ha): 20
- Velvetleaf plant response rating (velvetleaf; 500 g ai/ha): 60
- Plant response rating, Velvetleaf (velvetleaf; [5]): 50
- Plant response rating, Surinam Grass (Surinam grass; [4]): 90
- Surinam Grass plant response rating (Surinam grass; 125 g ai/ha): 10
- Surinam Grass plant response rating (Surinam grass; 500 g ai/ha): 20
- Plant response rating, Surinam Grass (Surinam grass; [5]): 30
- Plant response rating, Foxtail, Giant (giant foxtail; [4]): 100
- Foxtail, Giant plant response rating (giant foxtail; 125 g ai/ha): 10
- Foxtail, Giant plant response rating (giant foxtail; 500 g ai/ha): 20
- Plant response rating, Foxtail, Giant (giant foxtail; [5]): 70
- Plant response rating, Morningglory (morningglory; [4]): 30
- Morningglory plant response rating (morningglory; 125 g ai/ha): 10
- Morningglory plant response rating (morningglory; 500 g ai/ha): 100
- Plant response rating, Morningglory (morningglory; [5]): 10
- Barnyardgrass plant response rating (barnyardgrass [1]): 70
- Sedge, Umbrella plant response rating [2]: 80
- Plant response rating, Barnyardgrass (barnyardgrass [3]; [4]): 90
- Barnyardgrass plant response rating (barnyardgrass [3]; 125 g ai/ha): 10
- Barnyardgrass plant response rating (barnyardgrass [3]; 500 g ai/ha): 10
- Plant response rating, Barnyardgrass (barnyardgrass [3]; [5]): 80
- Blackgrass plant response rating (blackgrass; 125 g ai/ha): 0
- Blackgrass plant response rating (blackgrass; 500 g ai/ha): 10
- Plant response rating, Cocklebur (cocklebur; [4]): 10
- Cocklebur plant response rating (cocklebur; 125 g ai/ha): 20
- Cocklebur plant response rating (cocklebur; 500 g ai/ha): 100
- Plant response rating, Cocklebur (cocklebur; [5]): 0
- Plant response rating, Lambsquarters (lambsquarters; [4]): 100
- Lambsquarters plant response rating (lambsquarters; 125 g ai/ha): 80
- Lambsquarters plant response rating (lambsquarters; 500 g ai/ha): 90
- Plant response rating, Lambsquarters (lambsquarters; [5]): 100
- Wheat plant response rating (wheat; 500 g ai/ha): 10
- Ducksalad plant response rating (ducksalad): 80

SMILES: CCn1nc(C(C)(C)C)cc1C(=O)Nc1cc(C#N)ccc1F [Compound 140]
- Rice plant response rating (rice): 30
- Plant response rating, Corn (corn; [4]): 0
- Corn plant response rating (corn; 125 g ai/ha): 0
- Corn plant response rating (corn; 500 g ai/ha): 10
- Plant response rating, Corn (corn; [5]): 0
- Plant response rating, Crabgrass, Large (large crabgrass; [4]): 100
- Crabgrass, Large plant response rating (large crabgrass; 125 g ai/ha): 0
- Crabgrass, Large plant response rating (large crabgrass; 500 g ai/ha): 0
- Plant response rating, Crabgrass, Large (large crabgrass; [5]): 0
- Plant response rating, Velvetleaf (velvetleaf; [4]): 20
- Velvetleaf plant response rating (velvetleaf; 125 g ai/ha): 0
- Velvetleaf plant response rating (velvetleaf; 500 g ai/ha): 0
- Plant response rating, Velvetleaf (velvetleaf; [5]): 0
- Plant response rating, Surinam Grass (Surinam grass; [4]): 60
- Surinam Grass plant response rating (Surinam grass; 125 g ai/ha): 0
- Surinam Grass plant response rating (Surinam grass; 500 g ai/ha): 0
- Plant response rating, Surinam Grass (Surinam grass; [5]): 0
- Plant response rating, Foxtail, Giant (giant foxtail; [4]): 80
- Foxtail, Giant plant response rating (giant foxtail; 125 g ai/ha): 0
- Foxtail, Giant plant response rating (giant foxtail; 500 g ai/ha): 0
- Plant response rating, Foxtail, Giant (giant foxtail; [5]): 0
- Morningglory plant response rating (morningglory; 125 g ai/ha): 0
- Morningglory plant response rating (morningglory; 500 g ai/ha): 0
- Barnyardgrass plant response rating (barnyardgrass [1]): 70
- Sedge, Umbrella plant response rating [2]: 80
- Plant response rating, Barnyardgrass (barnyardgrass [3]; [4]): 80
- Barnyardgrass plant response rating (barnyardgrass [3]; 125 g ai/ha): 0
- Barnyardgrass plant response rating (barnyardgrass [3]; 500 g ai/ha): 0
- Plant response rating, Barnyardgrass (barnyardgrass [3]; [5]): 20
- Blackgrass plant response rating (blackgrass; 125 g ai/ha): 0
- Blackgrass plant response rating (blackgrass; 500 g ai/ha): 0
- Plant response rating, Cocklebur (cocklebur; [4]): 80
- Cocklebur plant response rating (cocklebur; 125 g ai/ha): 0
- Cocklebur plant response rating (cocklebur; 500 g ai/ha): 20
- Plant response rating, Lambsquarters (lambsquarters; [4]): 100
- Lambsquarters plant response rating (lambsquarters; 125 g ai/ha): 20
- Lambsquarters plant response rating (lambsquarters; 500 g ai/ha): 80
- Plant response rating, Lambsquarters (lambsquarters; [5]): 0
- Wheat plant response rating (wheat; 500 g ai/ha): 0
- Ducksalad plant response rating (ducksalad): 80
